Test results taken from ChEMBL document CHEMBL5584261, “N-methylmorpholine incorporation into the structure of biphenyl leads to the bioactive inhibitor of PD-1/PD-L1 interaction” (Bioorg Med Chem Lett, 2024).
pEC50, pIC50: −log10 of the molar value. The source made the active and inactive calls. The calls are words filed in the database; no cut-off is given here.

Experiments:
[1] = biological target: T1, Programmed cell death protein 1/Programmed cell death 1 ligand 1 (Homo sapiens) (UniProt Q15116+Q9NZQ7); assay: Inhibition of human PD-1/PD-L1 interaction assessed as residual activity at 500 nM for 1 hr by HTRF assay relative to control; type: protein-complex assay
[2] = biological target: T1, Programmed cell death protein 1/Programmed cell death 1 ligand 1 (Homo sapiens); assay: (§1) Inhibition of PD-1/PD-L1 interaction in human Jurkat T cells co-cultured with CHO/TCRAct/PDL1 cells assessed as restoration of T cell activation measured for 6 hrs by luminescence based immune checkpoint blockade assay; conditions: dose 0.1-100 µM
[3] = biological target: T2, Programmed cell death protein 1/Programmed cell death 1 ligand 1 (Homo sapiens, UniProt Q9NZQ7); assay: Inhibition of human PD-1/PD-L1 interaction incubated for 1 hr by HTRF assay; type: protein-complex assay
T2 sequence (Q15116 whole entry): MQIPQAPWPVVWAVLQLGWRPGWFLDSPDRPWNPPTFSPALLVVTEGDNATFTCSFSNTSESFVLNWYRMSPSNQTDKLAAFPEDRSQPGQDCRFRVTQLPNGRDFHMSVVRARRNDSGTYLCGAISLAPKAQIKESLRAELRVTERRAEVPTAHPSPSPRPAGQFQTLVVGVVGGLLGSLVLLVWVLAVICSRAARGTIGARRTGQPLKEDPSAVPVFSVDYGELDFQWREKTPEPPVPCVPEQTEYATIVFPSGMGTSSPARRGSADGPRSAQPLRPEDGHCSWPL
T2 sequence (Q9NZQ7 whole entry): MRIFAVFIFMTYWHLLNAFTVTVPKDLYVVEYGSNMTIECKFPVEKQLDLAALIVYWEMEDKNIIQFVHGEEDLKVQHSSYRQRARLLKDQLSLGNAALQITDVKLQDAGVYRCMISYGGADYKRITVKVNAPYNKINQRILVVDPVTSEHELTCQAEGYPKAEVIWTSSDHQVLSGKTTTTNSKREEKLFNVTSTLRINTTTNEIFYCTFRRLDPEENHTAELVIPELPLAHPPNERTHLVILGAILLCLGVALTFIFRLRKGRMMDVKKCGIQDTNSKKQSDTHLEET

[4] = biological target: T2, Programmed cell death protein 1/Programmed cell death 1 ligand 1; assay: as §1
PBMC [5] = assay: Induction of T cell activation in human PBMC cells co-cultured with CHO/TCRAct/PD-L1 cells assessed as increase in HLA-DR positive cells at 10 uM incubated for 48 hrs by flow cytometry analysis; type: functional, cell-based
PBMC [6] = assay: Induction of T cell activation in human PBMC cells co-cultured with CHO/TCRAct/PD-L1 cells assessed as increase in PD-1 positive cells at 10 uM incubated for 48 hrs by flow cytometry analysis; type: functional, cell-based
PBMC [7] = assay: Induction of T cell activation in human PBMC cells co-cultured with CHO/TCRAct/PD-L1 cells assessed as increase in the percentage of CD25+/CD4+ cells at 10 uM incubated for 48 hrs by flow cytometry analysis; type: functional, cell-based
PBMC [8] = assay: Induction of T cell activation in human PBMC cells co-cultured with CHO/TCRAct/PD-L1 cells assessed as increase in the percentage of CD69+/CD8+ cells at 10 uM incubated for 48 hrs by flow cytometry analysis; type: functional, cell-based

## Cc1c(NC(=O)c2ccc(CNC(CO)CO)cn2)cccc1-c1ccc2c(c1)OCCN2C(=O)c1ccc(CNC(CO)CO)cc1
[1]
  Activity: 70%

## Cc1c(COc2ccc(CNC(CO)(CO)CO)cc2)cccc1-c1ccc2c(c1)OCCN2C(=O)c1ccc(CNC(CO)(CO)CO)cc1
[1]
  Activity: 83%

## Cc1c(NC(=O)c2ccc(CNC(CO)CO)cn2)cccc1-c1ccc2c(c1)OCCN2C
[2]
  inhibition: inactive
[3]
  pIC50: 6.96

## Cc1c(COc2ccc(CNC(CO)CO)cc2)cccc1-c1ccc2c(c1)OCCN2C(=O)c1ccc(CNC(CO)CO)cc1
[1]
  Activity: 84%

## Cc1c(NC(=O)c2ccc(CNC(CO)(CO)CO)cn2)cccc1-c1ccc2c(c1)OCCN2C
[2]
  inhibition: Dose-Dependent Effect
[4]
  pEC50: 4.59
PBMC [5]
  Activity: Active
PBMC [6]
  Activity: Active
PBMC [7]
  Activity: Active
PBMC [8]
  Activity: Active
[3]
  pIC50: 7.11

## O=C(O)[C@@H]1CCCCN1Cc1ccc(OCc2cccc(-c3ccccc3)c2Br)c(Br)c1
[4]
  pEC50: 5.18

## Cc1c(NC(=O)c2ccc(CNC(CO)(CO)CO)cn2)cccc1-c1ccc2c(c1)OCCN2C(=O)c1ccc(CNC(CO)(CO)CO)cc1
[1]
  Activity: 92%
